Test results taken from publication PMC5086919, “Antileukemic Scalarane Sesterterpenoids and Meroditerpenoid from Carteriospongia (Phyllospongia) sp., Induce Apoptosis via Dual Inhibitory Effects on Topoisomerase II and Hsp90” (Scientific Reports, 2016).
In brackets after ≈: the same amount, converted by molar mass. Like-named read-outs stand apart in the source and are kept apart here.

Legend:
U937 cells = experiment: MTT antiproliferative assay, lymphoma U937 cells; conditions: Homo sapiens, U-937, 72 h, read-out: IC50, cytotoxicity, Lymphoma U937
K562 cells = experiment: MTT antiproliferative assay, leukemia K562 cells; conditions: Homo sapiens, K562, 72 h, read-out: IC50, cytotoxicity, Leukemia K562
Excerpt: (§2) Several cancer cell lines including leukemia K562, Molt 4, and HL 60 cells, prostate cancer LNCaP cells, colon cancer DLD-1 cells and breast cancer T-47D cells were used to evaluate the antiproliferative activity.
(§3) The cell lines were obtained from the American Type Culture Collection (ATCC, Manassas, VA, USA). […] Dimethyl sulfoxide (DMSO), 3-(4,5-dimethylthiazol-2-yl)-2,5-diphenyl-tetrazolium bromide (MTT) and all other chemicals were purchased from Sigma-Aldrich (St. Louis, MO, USA).

Molt 4 cells [1] = experiment: Annexin V/PI apoptosis assay; assay type: cell-based, human; conditions: 0, 0.0625, 0.125 and 0.25 μg/mL, 24 h, annexin-V/PI
Experimental: The externalization of phosphatidylserine (PS) and membrane integrity were quantified using an annexin V- FITC staining kit[72]. In brief, 10^6 cells were grown in 35 mm diameter plates and were labeled with annexin V-FITC (10 μg/mL) and PI (20 μg/mL) prior to harvesting. After labeling, all plates were washed with a binding buffer and harvested. Cells were resuspended in the binding buffer at a concentration of 2 × 10^5 cells/mL before analysis by flow cytometer FACS-Calibur (Becton-Dickinson, San Jose, CA, USA) and CellQuest software. Approximately 10,000 cells were counted for each determination.

Molt 4 cells [2] = experiment: MMP disruption, JC-1 staining flow cytometry; assay type: cell-based, human; conditions: 0, 0.0625, 0.125 and 0.25 μg/mL, 24 h
Experimental: These assays were performed as described previously. […] In brief, the treated cells were labeled with a specific fluorescent dye for 30 min. After labeling, cells were washed with PBS and resuspended in PBS at a concentration of 1 × 10^6 cells/mL before analysis via flow cytometry.

Sup-T1 cells = experiment: MTT antiproliferative assay, lymphoma Sup-T1 cells; conditions: Homo sapiens, SUP-T1, 72 h, read-out: IC50, cytotoxicity, Lymphoma Sup-T1
γH2AX in Molt 4 cells = experiment: Western blot of γH2AX (DNA damage biomarker); assay type: cell-based, human; conditions: 0, 0.0625, 0.125 and 0.25 μg/mL, 24 h
Excerpt: (§1) The ability of Topo II to generate DNA damage in the presence of Topo II-targeting agents led to the hypothesis that an important determinant of drug sensitivity was related to the overall level of Topo II[17]. […] Such findings encouraged us to evaluate the effect of the isolates on Topo II activity. In order to confirm whether the DNA damage-induced by the isolated sesterterpenoids involved the inhibition of Topo II activity, a cell-free DNA cleavage assay using an enzyme-mediated negatively supercoiled pHOT1 plasmid DNA was applied. […] These marine terpenoids suppressed Topo II activity, resulting in the inhibition of supercoiled DNA relaxation in a dose-dependent manner (Fig. 5A). […] To determine whether the apoptotic mechanism of these compounds affects γH2AX (as a biomarker of DNA damage) induction, Western blot analysis was employed to examine the activation of γH2AX.
Cell lysates were prepared by treating the cells for 30 min in RIPA lysis buffer, 1% Nonidet P-40, 0.5% sodium deoxycholate, 0.1% sodium dodecyl sulphate (SDS), 1 mM sodium orthovanadate, 100 μg/mL phenylmethylsulfonyl fluoride and 30 μg/mL aprotinin) (all chemicals were from Sigma)[38]. The lysates were centrifuged at 20,000 × g for 30 min, and the protein concentration in the supernatant was determined using a BCA protein assay kit (Pierce). Equal amounts of proteins were respectively separated by 7.5%, 10% or 12% of SDS-polyacrylamide gel electrophoresis and then were electrotransferred to a PVDF membrane. The membrane was blocked with a solution containing 5% non-fat dry milk TBST buffer (20 mM Tris-HCl, pH 7.4, 150 mM NaCl and 0.1% Tween 20) for 1 h and washed with TBST buffer. The protein expressions were monitored by immunoblotting using specific antibodies. These proteins were detected by an enhanced chemiluminescence kit (Pierce).

T-47D cells = experiment: MTT antiproliferative assay, breast cancer T-47D cells; conditions: Homo sapiens, T47D, 72 h, read-out: IC50, cytotoxicity, Breast T-47D
Excerpt: as §2, §3

Molt 4 cells [3] = experiment: MTT antiproliferative assay, leukemia Molt 4 cells; assay type: cell-based; conditions: Homo sapiens
DLD-1 cells = experiment: MTT antiproliferative assay, colon cancer DLD-1 cells; conditions: Homo sapiens, DLD-1, 72 h, read-out: IC50, cytotoxicity, Colon DLD-1
Excerpt: as §2, §3

human topoisomerase II = molecular target: T1, human topoisomerase II (Homo sapiens, UniProt P11388); experiment: Cell-free topoisomerase II DNA relaxation/cleavage assay with supercoiled pHOT1 plasmid DNA; assay type: biochemical; conditions: for inhibition at 0.08 µg/mL: 0.08 μg/mL; for inhibition at 0.08 µg/mL / inhibition at 0.312 µg/mL / inhibition at 1.25 µg/mL / inhibition at 5 µg/mL / inhibition at 20 µg/mL: compared with control supercoiled DNA; for inhibition at 0.312 µg/mL: 0.312 μg/mL; for inhibition at 1.25 µg/mL: 1.25 μg/mL; for inhibition at 5 µg/mL: 5 μg/mL; for inhibition at 20 µg/mL: 20 μg/mL
T1 construct: purchased Topogen
Excerpt: as §1
The assay was performed as described previously. […] Reactions were terminated by adding 2 μL of 10% SDS to facilitate trapping the enzyme in a cleavage complex, followed by the addition of 2.5 μL of proteinase K (50 μg/mL) to digest the bound protein (incubated at 37 °C for 15 min) and finally by adding 0.1 volume of the sample loading dye. The DNA products were analyzed via electrophoresis through vertical 2% agarose gels at 2 voltage/cm in 0.5 × TAE buffer. Gels were stained with ethidium bromide and photographed using an Eagle Eye II system (Stratagene, La Jolla, CA, USA). The quantitative analysis of the DNA Topo II activity was performed as described previously.

Cal-27 cells = experiment: MTT antiproliferative assay, oral Cal-27 cells; conditions: Homo sapiens, CAL-27, 72 h, read-out: IC50, cytotoxicity, Oral Cal-27
Excerpt: as §2, §3

HL 60 cells = experiment: MTT antiproliferative assay, leukemia HL 60 cells; conditions: Homo sapiens, HL-60, 72 h, read-out: IC50, cytotoxicity, Leukemia HL 60
Excerpt: as §2, §3

Ca9-22 cells = experiment: MTT antiproliferative assay, oral Ca9-22 cells; conditions: Homo sapiens, Ca9-22, 72 h, read-out: IC50, cytotoxicity, Oral Ca9-22
Excerpt: as §2, §3

LNCaP cells = experiment: MTT antiproliferative assay, prostate cancer LNCaP cells; conditions: Homo sapiens, 72 h
Excerpt: as §2, §3

[4] = test system: human Molt 4 tumor xenograft; experiment: Human leukemia Molt 4 tumor xenograft animal model; assay type: in vivo, immunodeficient athymic mice
Excerpt: Compounds 1 and 2 induced apoptosis in several cancer cell lines; however, the amounts isolated were insufficient for further examination of their in vivo antitumor effect. On the other hand, the amount separated from 3 was sufficient to study the in vivo anti-tumor activity by evaluating its effect on tumor growth of human leukemia Molt 4 in xenograft animal model. Molt 4 (1 × 10^6) cells were inoculated subcutaneously at the right flank of female immunodeficient athymic mice. […] The average tumor size on day 33 in the control group was 404.63 mm^3, whereas the average tumor size in compound 3-treated group was 212.10 mm^3 (Fig. 6A).
Establishment of nude mice with xenografts was performed as described previously. Six-week-old […] immunodeficient athymic mice were purchased from the National Laboratory Animal and Research Center (Taipei, Taiwan). All of the animals were maintained under standard laboratory conditions (temperature 24–26 °C, 12–12 h dark-light circle) and fed with laboratory diet and water. This study was approved by the Animal Care and Treatment Committee of Kaohsiung Medical University (IACUC Permit Number 101136). All experiments were conducted in strict accordance with the recommendations in the Guide for the Care and Use of Laboratory Animals of the National Institutes of Health, and all efforts were made to minimize animal stress/distress. Molt 4 cells (1 × 10^6) resuspended in 0.2 mL PBS were injected s.c. into the right flank of each mouse, and tumor growth was monitored every day. Fourteen days after tumor cell injection, mice with confirmed tumor growth were randomly divided into two groups. Compound 3 (1.14 μg/g) was intraperitoneally administered to the treatment group, and the control group received solvent only. Compound 3 was administrated every other day for 33 days. Animals were sacrificed by carbon dioxide. Tumor size was measured three times a week using calipers and tumor volumes were calculated according to the standard formula: width^2 × length/2.

[5] = 72 h, read-out: IC50, cytotoxicity, Leukemia Molt 4
[6] = read-out: IC50, cytotoxicity, Prostate LNCaP (class symbol)

T1 sequence (P11388 whole entry): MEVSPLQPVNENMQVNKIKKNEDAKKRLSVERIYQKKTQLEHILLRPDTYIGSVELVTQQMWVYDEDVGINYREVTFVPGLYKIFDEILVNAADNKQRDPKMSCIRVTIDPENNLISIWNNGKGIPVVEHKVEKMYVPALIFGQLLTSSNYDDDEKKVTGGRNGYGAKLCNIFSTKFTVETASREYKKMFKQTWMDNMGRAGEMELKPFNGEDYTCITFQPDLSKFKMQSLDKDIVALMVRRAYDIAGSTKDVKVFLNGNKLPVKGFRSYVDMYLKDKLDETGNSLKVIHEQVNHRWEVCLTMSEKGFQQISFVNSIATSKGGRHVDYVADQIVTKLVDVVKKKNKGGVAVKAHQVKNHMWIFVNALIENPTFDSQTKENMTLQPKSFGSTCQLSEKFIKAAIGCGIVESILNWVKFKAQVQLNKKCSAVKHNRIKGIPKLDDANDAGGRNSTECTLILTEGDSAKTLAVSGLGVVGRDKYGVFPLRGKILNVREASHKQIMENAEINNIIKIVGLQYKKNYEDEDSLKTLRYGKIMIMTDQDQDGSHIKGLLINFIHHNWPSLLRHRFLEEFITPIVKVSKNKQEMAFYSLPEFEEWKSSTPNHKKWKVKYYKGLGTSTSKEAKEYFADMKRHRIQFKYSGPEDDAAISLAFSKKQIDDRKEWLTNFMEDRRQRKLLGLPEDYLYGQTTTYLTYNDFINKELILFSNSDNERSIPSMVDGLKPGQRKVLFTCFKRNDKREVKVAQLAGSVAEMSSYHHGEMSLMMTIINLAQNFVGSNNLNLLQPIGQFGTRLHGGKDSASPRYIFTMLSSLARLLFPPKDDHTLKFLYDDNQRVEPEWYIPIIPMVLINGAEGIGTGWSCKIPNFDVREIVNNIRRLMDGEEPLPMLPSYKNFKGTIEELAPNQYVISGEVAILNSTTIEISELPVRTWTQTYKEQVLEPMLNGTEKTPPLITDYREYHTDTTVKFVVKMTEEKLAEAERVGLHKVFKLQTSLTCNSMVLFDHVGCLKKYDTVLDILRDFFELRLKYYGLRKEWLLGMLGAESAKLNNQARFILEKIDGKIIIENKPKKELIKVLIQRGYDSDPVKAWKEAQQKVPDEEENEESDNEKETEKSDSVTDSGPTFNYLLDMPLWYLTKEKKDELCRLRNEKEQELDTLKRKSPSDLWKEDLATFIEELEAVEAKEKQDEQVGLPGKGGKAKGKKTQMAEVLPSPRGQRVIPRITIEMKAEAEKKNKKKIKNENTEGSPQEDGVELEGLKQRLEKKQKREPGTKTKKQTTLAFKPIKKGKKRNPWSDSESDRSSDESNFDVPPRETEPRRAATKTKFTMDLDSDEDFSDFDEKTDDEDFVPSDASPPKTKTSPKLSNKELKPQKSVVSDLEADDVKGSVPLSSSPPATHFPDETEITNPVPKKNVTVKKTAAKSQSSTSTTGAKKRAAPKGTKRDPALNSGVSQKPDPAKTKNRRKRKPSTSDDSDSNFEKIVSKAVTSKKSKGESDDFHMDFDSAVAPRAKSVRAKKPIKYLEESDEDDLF

SMILES | IC50 (U937 cells) [µg/mL] | IC50 (K562 cells) [µg/mL] | apoptotic population of Molt 4 cells (Molt 4 cells [1]) | mitochondrial membrane potential (Molt 4 cells [2]) | IC50 (Sup-T1 cells) [µg/mL] | expression of γH2AX (γH2AX in Molt 4 cells) | IC50 (T-47D cells) [µg/mL] | IC50 (Molt 4 cells [3]; [5]) [µg/mL] | IC50 (DLD-1 cells) [µg/mL] | inhibition at 0.08 µg/mL (human topoisomerase II) [%] | inhibition at 0.312 µg/mL (human topoisomerase II) [%] | inhibition at 1.25 µg/mL (human topoisomerase II) [%] | inhibition at 5 µg/mL (human topoisomerase II) [%] | inhibition at 20 µg/mL (human topoisomerase II) [%] | IC50 (Cal-27 cells) [µg/mL] | IC50 (HL 60 cells) [µg/mL] | IC50 (Ca9-22 cells) [µg/mL] | IC50 (LNCaP cells; [6]) [µg/mL] | further results
CC[C@@H](O)CC(=O)O[C@@H]1C[C@@H]2[C@@]3(C)CCC[C@](C)(CC)[C@@H]3CC[C@@]2(C)[C@@H]2CC=C(C(C)=O)[C@H](C=O)[C@@]12C (relative stereo) [Compound 2, 12β-(3′β-hydroxy-pentanoyloxy)-20,24-dimethyl-24-oxo-scalara-16-en-25-al] | 0.61 (≈ 1.19 µM) | 0.35 (≈ 0.68 µM) | increase in the apoptotic population | disruption in mitochondrial membrane potential | 0.42 (≈ 0.816 µM) | significantly enhanced the expression of γH2AX in a dose-dependent manner | 1.87 (≈ 3.63 µM) | 0.3 | 1.71 (≈ 3.32 µM) | 12 | 23 | 36 | 90 | 99 | 3.17 (≈ 6.16 µM) | 0.22 (≈ 0.427 µM) | 1.48 (≈ 2.88 µM) | > 20 | 
CC(C)=CCC/C(C)=C/CC/C(C)=C/CC/C(C)=C/CC1=CC(=O)C=CC1=O [Compound 3, 2-tetraprenil-1,4-benzochinone] | 0.65 (≈ 1.71 µM) | 0.7 (≈ 1.84 µM) | increase in the apoptotic population | disruption in mitochondrial membrane potential | 0.33 (≈ 0.867 µM) | activation of DNA damage was not observed | 1.06 (≈ 2.79 µM) | 0.34 | 15.4 (≈ 40.5 µM) | 7 | 13 | 28 | 90 | 98 | 0.51 (≈ 1.34 µM) | 0.42 (≈ 1.1 µM) | 0.97 (≈ 2.55 µM) | > 20 | mice body weights versus control group ([4]; 1.14 μg/g intraperitoneal, 33 days): no significant difference; average tumor size on day 33 ([4]; 1.14 μg/g intraperitoneal, every other day, 33 days): 212.10 mm^3; suppression of the volume of xenograft tumor growth compared with the control ([4]; Molt 4 xenograft): 47.58%; IC50 (human topoisomerase II; cell-free system, read-out: IC50, inhibition of topo II activities (converted)): 1.13 µM
C=CCNC1=C2C[C@@H](C)C[C@H](OC)[C@H](O)[C@@H](C)/C=C(\C)[C@H](OC(N)=O)[C@@H](OC)/C=C\C=C(/C)C(=O)NC(=CC1=O)C2=O [Compound 17-AAG, 17-allylamine-17-demethoxygeldanamycin, reference compound] |  |  |  |  |  |  |  |  |  |  |  |  |  |  |  |  |  |  | IC50 (Molt 4 cells [3]; 24 h, molar value in brackets, read-out: IC50, suppression in cell growth, Molt 4): 7.2 µM; IC50 (Molt 4 cells [3]; 24 h, read-out: IC50, suppression in cell growth, Molt 4): 4.2 µg/mL
COc1cccc2c1C(=O)c1c(O)c3c(c(O)c1C2=O)C[C@@](O)(C(=O)CO)C[C@@H]3O[C@H]1C[C@H](N)[C@H](O)[C@H](C)O1 [Doxorubicin, reference compound] | 0.21 (≈ 0.386 µM) | 0.2 (≈ 0.368 µM) |  |  | 0.02 (≈ 0.0368 µM) |  | 0.08 (≈ 0.147 µM) | 0.01 | 1.28 (≈ 2.35 µM) |  |  |  |  |  | 0.01 (≈ 0.0184 µM) | 0.02 (≈ 0.0368 µM) | 0.05 (≈ 0.092 µM) |  | IC50 (LNCaP cells; read-out: IC50, cytotoxicity, Prostate LNCaP): 2.47 µg/mL (≈ 4.54 µM)
COc1cc([C@@H]2c3cc4c(cc3[C@@H](O[C@@H]3O[C@@H]5CO[C@@H](C)O[C@H]5[C@H](O)[C@H]3O)[C@H]3COC(=O)[C@H]23)OCO4)cc(OC)c1O [etoposide, reference compound] |  |  |  |  |  |  |  |  |  |  |  |  |  |  |  |  |  |  | DNA product with topo II poison (human topoisomerase II; 500 μM, positive control, Lane 16): linear DNA strand was observed
